Experimental findings from patent publication US20240254087A1, “SELECTIVE, PARTIAL, AND ARRESTIN-BIASED 5-HT2A AGONISTS WITH UTILITY IN VARIOUS DISORDERS” (Saint Joseph's University, priority 2021, published 2024) are described below.

In general, Emax refers to the size of the effect at its maximum, as opposed to the concentration needed.

For assay [1], the target named is T1, 5-HT2B (Homo sapiens, UniProt P41595). In words: BRET Gq dissociation, 5-HT2B. As to conditions: for Emax: read-out: 5-HT2B Gq Dissociation (BRET) EMAX ± SEM (%5-HT). Type of assay: cell-based. Also on record: expressed in transfected cells; host or cells: HEK293T, transient.
T1 sequence (P41595 whole entry): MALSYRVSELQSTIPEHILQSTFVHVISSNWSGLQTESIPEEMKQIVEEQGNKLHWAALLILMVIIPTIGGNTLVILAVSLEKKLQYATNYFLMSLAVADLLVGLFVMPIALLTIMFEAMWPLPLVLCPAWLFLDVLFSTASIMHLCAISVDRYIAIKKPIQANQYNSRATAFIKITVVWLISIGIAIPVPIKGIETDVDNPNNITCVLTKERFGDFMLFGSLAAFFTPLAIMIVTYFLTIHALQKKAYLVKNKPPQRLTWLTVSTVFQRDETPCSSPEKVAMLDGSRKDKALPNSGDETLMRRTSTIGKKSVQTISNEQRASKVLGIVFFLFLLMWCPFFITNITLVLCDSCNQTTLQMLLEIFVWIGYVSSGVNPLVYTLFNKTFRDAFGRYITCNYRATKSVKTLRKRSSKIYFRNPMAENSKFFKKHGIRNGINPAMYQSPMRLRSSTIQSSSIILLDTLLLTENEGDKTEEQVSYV
The subject of the next assay is male C57BL/6J mice. In words: Head-twitch response (HTR) in mice. Format: in vivo, mouse. As to conditions: for ED50: Mus musculus. How it is done:
Male C57BL/6J mice (6-8 weeks old) from Jackson Labs (Bar Harbor, ME, USA) were used for the behavioral experiments. The mice were housed on a reversed light-dark cycle (lights on at 1900 h, off at 0700 h) in an AAAC-approved vivarium at the University of California San Diego. Mice were housed up to four per cage in a climate-controlled room and with food and water provided ad libitum except during behavioral testing. Testing was performed between 1000 and 1800 h (during the dark phase of the light-dark cycle). The studies were conducted in accordance with National Institutes Health (NIH) guidelines and were approved by the University of California San Diego Institutional Animal Care and Use Committee.
The mice were allowed to recover from the magnet implantation surgeries for at least 1 week prior to behavioral testing. HTR experiments were conducted in a well-lit room, and the mice were allowed to habituate to the room for at least 1 h prior to testing. Head twitches was assessed in a 12-cm diameter glass cylinder surrounded by a magnetometer coil. Coil voltage was low-pass filtered (2 kHz), amplified, and digitized (20-kHz sampling rate) using a Powerlab/8SP with LabChart v 7.3.2 (ADInstruments, Colorado Springs, CO, USA). […] HTR counts were analyzed using one-way ANOVAs. Dunnett's test was used for post hoc comparisons.

Assay [2] addresses T2, 5-HT2C (Homo sapiens, UniProt P28335).
T2 sequence (P28335 33-458): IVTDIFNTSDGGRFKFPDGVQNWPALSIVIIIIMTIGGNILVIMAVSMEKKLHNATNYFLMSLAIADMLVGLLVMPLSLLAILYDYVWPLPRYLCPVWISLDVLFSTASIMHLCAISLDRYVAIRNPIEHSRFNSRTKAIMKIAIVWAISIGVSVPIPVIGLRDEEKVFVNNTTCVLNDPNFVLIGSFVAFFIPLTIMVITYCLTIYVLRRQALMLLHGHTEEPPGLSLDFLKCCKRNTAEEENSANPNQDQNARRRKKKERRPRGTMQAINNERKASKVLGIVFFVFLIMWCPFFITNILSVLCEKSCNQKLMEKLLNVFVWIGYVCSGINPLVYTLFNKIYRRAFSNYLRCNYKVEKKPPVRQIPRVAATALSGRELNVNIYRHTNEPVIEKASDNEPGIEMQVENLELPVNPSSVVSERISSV
In words: BRET Gq dissociation, 5-HT2C. Format: cell-based. Also on record: expressed in transfected cells; host or cells: HEK293T, transient. The following applies: for Emax: read-out: 5-HT2C Gq Dissociation (BRET) EMAX ± SEM (%5-HT). For orientation: In BRET a luciferase serves as donor, and the signal depends on an acceptor being close.

Assay [3] addresses T2, 5-HT2C. In words: Ca2+ flux assay, 5-HT2C. Format: cell-based. Details: expressed in transfected cells. The following applies: for EC50: 5-HT2C EC50, nM; for Emax: read-out: 5-HT2C Emax % 5-HT. As for the experimental part:
(§1) Cell lines were maintained in DMEM containing 10% FBS, 10 μg/mL Blasticidin (Invivogen), and 100 μg/mL Hygromycin B (GoldBio). At least 20-24 hours before the assay, receptor expression was induced with tetracycline ([…]) and cells were seeded into 384-well poly-L-lysine-coated black plates at a density of 7,500 cells/well in DMEM containing 1% dialyzed FBS. On the day of the assay, the cells were incubated for 1 h at 37° C. with Fluo-4 Direct dye (Invitrogen, 20 μl/well) reconstituted in drug buffer (20 mM HEPES-buffered HBSS, pH 7.4) containing 2.5 mM probenecid. Drug dilutions were prepared at 5X final concentration in McCorvy buffer (20 mM HEPES-buffered HBSS, 0).1% BSA, 0.01% ascorbic acid pH 7.4). After dye load, cells were allowed to equilibrate to room temperature for 15 minutes, and then placed in a FLIPR^TETRA fluorescence imaging plate reader (Molecular Devices). Fluorescence for the FLIPR^TETRA were programmed to read baseline fluorescence for 10 s (1 read/s), and afterward 5 μl of drug per well was added and read for a total of 5-10 min (1 read/s). Fluorescence in each well was normalized to the average of the first 10 reads for baseline fluorescence, and then either maximum-fold peak increase over basal or area under the curve (AUC) was calculated. […] Data was plotted and non-linear regression was performed using “log(agonist) vs. response” in Graphpad Prism 8 to yield Emax and EC50 parameter estimates.
(In general: A change in cytosolic calcium serves as a functional read-out for many receptors and channels.)

Assay [4] has as its target T1, 5-HT2B. In words: Ca2+ flux assay, 5-HT2B. Type of assay: cell-based. Also on record: expressed in transfected cells. The following applies: Ca2+ flux; for Emax: read-out: 5-HT2B Emax % 5-HT. As for the experimental part:
as §1

In assay [5] the target is T3, 5-HT2A (Homo sapiens, UniProt P28223). In words: Ca2+ flux assay, 5-HT2A. Format: cell-based. Details: expressed in transfected cells. The following applies: for Emax: read-out: 5-HT2A Emax % 5-HT, Ca2+ flux. How it is done: as §1
T3 sequence (P28223 whole entry): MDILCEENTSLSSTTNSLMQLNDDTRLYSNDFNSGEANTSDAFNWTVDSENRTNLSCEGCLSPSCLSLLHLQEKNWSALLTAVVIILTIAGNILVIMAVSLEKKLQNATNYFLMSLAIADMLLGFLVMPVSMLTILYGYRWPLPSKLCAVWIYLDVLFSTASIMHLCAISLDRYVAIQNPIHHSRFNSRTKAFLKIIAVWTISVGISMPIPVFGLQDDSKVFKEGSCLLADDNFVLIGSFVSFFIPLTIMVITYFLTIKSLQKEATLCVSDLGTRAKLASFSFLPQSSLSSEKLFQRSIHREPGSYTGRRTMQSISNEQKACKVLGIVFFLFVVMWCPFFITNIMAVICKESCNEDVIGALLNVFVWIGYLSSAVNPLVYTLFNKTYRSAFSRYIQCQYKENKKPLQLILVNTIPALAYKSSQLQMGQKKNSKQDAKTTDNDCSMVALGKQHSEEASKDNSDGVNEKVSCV
Assay [6] deals with 5-HT2A. In words: Ca2+ flux assay, 5-HT2A. Type of assay: cell-based, human. The following applies: Gq/11 Ca2+ mobilization; higher number = skewed towards 5-HT2A. How it is done:
as §1

Assay [7] addresses T3, 5-HT2A. In words: cell-based. The following applies: BRET, mean ± SEM. Also on record: expressed in transfected cells; host or cells: HEK293T, transient.
For assay [8], the target named is T3, 5-HT2A. In words: cell-based. Details: expressed in transfected cells; host or cells: HEK293T, transient.
Setting [9] is: read-out: HTR ED50 μmol/kg (95% CI), SC, except DOI and 25D-NBOMe IP.
The mark [10] stands for this setting: read-out: HTR ED50 mg/kg (95% CI), SC, except DOI and 25D-NBOMe IP.
Setting [11] is: SC, except DOI and 25D-NBOMe IP.

“Also recorded” adds a separate entry of the source. Like-named read-outs stand apart in the source and are kept apart here.

In the case of `COc1cc([N+](=O)[O-])c(OC)cc1CCNCc1ccccc1Br` [25N-NBBr (9)], the EC50 was 245 nM on 5-HT2B [1]; 30.9 nM at 5-HT2C [2]; 144 nM at 5-HT2C [3]; 2.36 nM on 5-HT2A [5] (5-HT2A EC50, nM, Ca2+ flux). Further, the maximal effect (Emax) on 5-HT2B [1] was 17 ± 2.1%; on 5-HT2C [2] it was 81 ± 2.3%; at 5-HT2C [3], 78 ± 2%; at 5-HT2B [4] it was under 10%; on 5-HT2A [5] it was 79 ± 2%. Also, the “Max HTR response during a 30-min assessment (maximum counts ÷ baseline response)” value in the assay on male C57BL/6J mice is given as 4.7-fold increase. For the same compound, the ED50 with male C57BL/6J mice (setting [9]) was 14.6 µmol/kg; in the assay on male C57BL/6J mice (setting [10]) it was 6.31 mg/kg. Further, on 5-HT2B [4], the “5-HT2B EC50, nM” value is listed as “No activity”. Besides, in the assay with 5-HT2A [6], the “5-HT2A/5-HT2c Selectivity Factor ΔLog(Emax/EC50)” value was 61.9.
With `COc1cc([N+](=O)[O-])c(OC)cc1CCNCc1ccccc1OC(F)F` [25N-NBOCF2H (11), {[2-(difluoromethoxy)phenyl]methyl}[2-(2,5-dimethoxy-4-nitrophenyl)ethyl]amine], the “Induction of the HTR in mice (in words)” value with male C57BL/6J mice was “lacked a HTR; also recorded: failed to induce a HTR”. Besides, the “Max HTR response during a 30-min assessment (maximum counts ÷ baseline response)” value in the assay with male C57BL/6J mice was 13.5-fold increase. Also, the values for the ED50 in the assay on male C57BL/6J mice (setting [9]) and in the assay on male C57BL/6J mice (setting [10]) were 4.32 µmol/kg and 1.81 mg/kg, respectively. The EC50 at 5-HT2C [3] came to 3.99 nM; on 5-HT2A [5] (5-HT2A EC50, nM, Ca2+ flux) it was 1.92 nM. For the same compound, the Emax on 5-HT2C [3] is 101 ± 1%; on 5-HT2B [4], under 10%; on 5-HT2A [5], at most 77%. Also, the “5-HT2B EC50, nM” value at 5-HT2B [4] was “No activity”. On 5-HT2A [5] (Ca2+ flux), the “5-HT2A Emax % 5-HT” value came to 95 ± 1 % 5-HT. Besides, the “5-HT2A/5-HT2c Selectivity Factor ΔLog(Emax/EC50)” value with 5-HT2A [6] was determined as 1.9.
Turning to `CCOc1ccccc1CNCCc1cc(OC)c([N+](=O)[O-])cc1OC` [25N-NBOEt (5)], the “Max HTR response during a 30-min assessment (maximum counts ÷ baseline response)” value with male C57BL/6J mice is 13.2-fold increase. The ED50 in the assay with male C57BL/6J mice (setting [9]) came to 1.44 µmol/kg; in the assay with male C57BL/6J mice (setting [10]), 0.57 mg/kg. The EC50 was 0.88 nM at 5-HT2C [3] and 0.72 nM at 5-HT2A [5] (5-HT2A EC50, nM, Ca2+ flux). For the same compound, the maximal response (Emax) on 5-HT2C [3] is 99 ± 1%; at 5-HT2B [4] it was under 10%; at 5-HT2A [5], 87 ± 2%. The “5-HT2B EC50, nM” value at 5-HT2B [4] is on record as “No activity”. The “5-HT2A/5-HT2c Selectivity Factor ΔLog(Emax/EC50)” value in the assay with 5-HT2A [6] came to 1.0.
With `COc1cc([N+](=O)[O-])c(OC)cc1CCNCc1ccccc1O` [25N-NBOH (3), 2-({[2-(2,5-dimethoxy-4-nitrophenyl)ethyl]amino}methyl)phenol], the “Max HTR response during a 30-min assessment (maximum counts ÷ baseline response)” value with male C57BL/6J mice is listed as 8.8-fold increase. Moreover, the ED50 stood at 0.19 µmol/kg with male C57BL/6J mice (setting [9]) and 0.07 mg/kg with male C57BL/6J mice (setting [10]). Besides, the EC50 is 1.78 nM on 5-HT2C [3] and 0.316 nM on 5-HT2A [5] (5-HT2A (pEC50 ± SEM), Ca2+ flux). Also, the Emax on 5-HT2C [3] is 100 ± 2%; at 5-HT2B [4], under 10%; on 5-HT2A [5], 87 ± 2%. At 5-HT2B [4], the “5-HT2B EC50, nM” value is on record as “No activity”. Besides, the “5-HT2A/5-HT2c Selectivity Factor ΔLog(Emax/EC50)” value in the assay with 5-HT2A [6] amounted to 4.9.
As for `COc1cc(CCN)c(OC)cc1I` [Compound 2C-I, reference compound], on 5-HT2B [1], the “5-HT2B Gq Dissociation (BRET) EMAX ± SEM (%5-HT)” value is recorded as 101.0 ± 2.1 %5-HT and the “5-HT2B Gq Dissociation (BRET) pEC50 ± SEM” value came out at 7.72 ± 0.07. For the same compound, the “Max HTR response during a 30-min assessment (maximum counts ÷ baseline response)” value with male C57BL/6J mice was 13.8-fold increase. In the assay with male C57BL/6J mice (setting [11]), the “HTR ED50 μmol/kg (95% CI)” value is reported as 2.42 (1.46-4.02) μmol/kg and the “HTR ED50 mg/kg (95% CI)” value is on record as 0.83 (0.50-1.38) mg/kg. Besides, at 5-HT2C [2], the “5-HT2C Gq Dissociation (BRET) EMAX ± SEM (%5-HT)” value worked out at 106.9 ± 1.5 %5-HT and the “5-HT2C Gq Dissociation (BRET) pEC50 ± SEM” value stood at 9.34 ± 0.05. For the same compound, at 5-HT2A [7], the “5-HT2A Gq Emax (% 5-HT)” value is 93.4 ± 1.4 % 5-HT and the “5-HT2A Gq dissociation pEC50” value turned out to be 8.83 ± 0.05. In addition, on 5-HT2A [8] (BRET, mean ± SEM), the “5-HT2A β-arrestin Emax (% 5-HT)” value was determined as 74.3 ± 1.6 % 5-HT and the “5-HT2A β-arrestin recruitment pEC50” value is recorded as 8.25 ± 0.07.
For `COc1cc(CCNCc2ccccc2OC)c(OC)cc1I` [Compound 25I-NBOMe, reference compound], the Emax at 5-HT2B [1] was 78.6 ± 2.6%; at 5-HT2C [2], 124 ± 3.1%; at 5-HT2A [8] (read-out: 5-HT2A β-arrestin Emax (% 5-HT), BRET, mean ± SEM), 137 ± 3.7%. Also, the EC50 at 5-HT2B [1] (read-out: 5-HT2B Gq Dissociation (BRET) pEC50 ± SEM (converted)) is 3.39 nM; on 5-HT2C [2] (read-out: 5-HT2C Gq Dissociation (BRET) pEC50 ± SEM (converted)), 0.0977 nM; on 5-HT2A [7] (read-out: 5-HT2A Gq dissociation pEC50 (converted)), 0.355 nM; at 5-HT2A [8] (BRET, mean ± SEM, read-out: 5-HT2A β-arrestin recruitment pEC50 (converted)), 0.525 nM. In addition, in the assay with male C57BL/6J mice, the “Max HTR response during a 30-min assessment (maximum counts ÷ baseline response)” value is listed as 16.0-fold increase. In addition, the results for the ED50 in the assay on male C57BL/6J mice (setting [9]) and in the assay on male C57BL/6J mice (setting [10]) were 0.17 µmol/kg and 0.078 mg/kg, respectively. Also, the “5-HT2A Gq Emax (% 5-HT)” value at 5-HT2A [7] was 99.8 ± 1.2 % 5-HT.
